Results taken from patent publication US8846656B2, “Tetrahydropyrido-pyridine and tetrahydropyrido-pyrimidine compounds and use thereof as C5a receptor modulators” (Novartis AG, priority 2011, dated 2014).

Key:
[1] = test system: CD11b; test: Human whole blood CD11b up-regulation assay; type: cell-based; conditions: Homo sapiens, 2 nM human C5a, CD15+ granulocytes, read-out: hCD11b IC50
Protocol: Whole blood was collected in sodium heparin tubes and the assay started within 2 hours of the blood draw. The blood was incubated with compounds in 1% DMSO (dimethyl sulfoxide) at room temperature for 10 minutes with gentle rocking. 2 nM of human C5a was then added for 15 minutes at room temperature with gentle rocking. Following the C5a incubation period cells were washed once with cold FACS (fluorescence-activated cell sorting) buffer (phosphate buffered saline+0.5% bovine serum albumin) FITC (fluorescein isothiocyanate) mouse anti-human CD15 and PE-Cy5 (phycoerythrin-cyanine 5) mouse anti-human CD11b antibodies (Becton Dickinson) were gently mixed with the cells and allowed to incubate for 30 minutes on ice protected from the light. Cells were then washed three times with cold FACS buffer. Red blood cells (RBC) were lysed by incubating with BD FACS lysis buffer (Becton Dickinson) for 10 minutes at room temperature. Cells were pelleted and the lysing procedure was repeated until all RBCs were lysed. The remaining leukocytes were resuspended in BD lysis buffer. Samples were acquired on the LSR^11 flow cytometer and 10,000 events of the CD15+ granulocyte population were collected. The CD11b median fluorescence intensity of the CD 15+ cell population was evaluated using FACSDiva software (Becton Dickinson).

[2] = target: human C5aR (Homo sapiens (Human), UniProt P21730); test: FLIPR assay: inhibition of C5a-mediated calcium mobilization; type: cell-based; conditions: stable cell line over expressing human C5aR & Gα15, human C5a at EC50 (0.1-0.25 nM)
Summary of the method: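 Compounds were added for 30 minutes at room temperature (1% DMSO) ahead of C5a stimulation. Before this, cells were dye-loaded for 1 h at 37° C: calcium 5 with 2.5 mM probenecid in HBSS, 20 mM HEPES, 0.1% BSA. Cells co-express human C5aR and Gα15; read-out is FLIPR Tetra calcium flux.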

Chain of human C5aR (P21730 whole entry): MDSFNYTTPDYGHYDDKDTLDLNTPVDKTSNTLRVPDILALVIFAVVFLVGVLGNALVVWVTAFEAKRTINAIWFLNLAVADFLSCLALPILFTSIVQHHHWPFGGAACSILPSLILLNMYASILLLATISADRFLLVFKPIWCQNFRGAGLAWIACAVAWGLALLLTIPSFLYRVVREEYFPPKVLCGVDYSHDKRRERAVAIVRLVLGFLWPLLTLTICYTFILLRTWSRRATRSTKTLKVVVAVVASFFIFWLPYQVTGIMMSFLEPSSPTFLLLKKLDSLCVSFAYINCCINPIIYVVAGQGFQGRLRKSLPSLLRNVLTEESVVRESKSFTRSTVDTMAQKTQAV

IC50 [1] [nM]	IC50 [2] [nM]	Structure (SMILES)
188	38	[2H]C1([2H])c2c(C)cc(-c3cccc4[nH]cc(C)c34)nc2CCN1c1c(C)cccc1C [Example 44-E, 6-(2,6-dimethylphenyl)-4-methyl-2-(3-methyl-1H-indol-4-yl)-5,6,7,8-(5,5-^2H2)tetrahydro-1,6-naphthyridine]
513	10	Cc1ccc(C(C)C)cc1N1CCc2nc(-c3cccc4[nH]cc(C)c34)nc(N3CC(O)C3)c2C1 [Example 17-AP, 1-(6-(5-isopropyl-2-methylphenyl)-2-(3-methyl-1H-indol-4-yl)-5,6,7,8-tetrahydropyrido[4,3-d]pyrimidin-4-yl)azetidin-3-ol]
6	1	CO[C@H]1CCN(c2nc(-c3c(C)ccc4[nH]nc(C)c34)nc3c2CN(c2c(F)c(C4CC4)nn2C)CC3)CC1(C)C [Example 56-C, (S)-6-(3-cyclopropyl-4-fluoro-1-methyl-1H-pyrazol-5-yl)-2-(3,5-dimethyl-1H-indazol-4-yl)-4-(4-methoxy-3,3-dimethylpiperidin-1-yl)-5,6,7,8-tetrahydropyrido[4,3-d]pyrimidine]
2250	90	Cc1cc(N2CCc3nc(-c4c(C)cccc4C)nc(N4CCCC(C)(C)C4)c3C2)n(C)n1 [Example 16-O, 6-(1,3-dimethyl-1H-pyrazol-5-yl)-2-(2,6-dimethylphenyl)-4-(3,3-dimethylpiperidin-1-yl)-5,6,7,8-tetrahydropyrido[4,3-d]pyrimidine]
7	1	Cc1ccc(C(C)C)cc1N1CCc2nc(-c3c(C)ccc4[nH]nc(C)c34)nc(N3CCCC[C@H]3C)c2C1 [Example 21-AM, (R)-2-(3,5-dimethyl-1H-indazol-4-yl)-6-(5-isopropyl-2-methylphenyl)-4-(2-methylpiperidin-1-yl)-5,6,7,8-tetrahydropyrido[4,3-d]pyrimidine]
58	4	Cc1ccc(C(C)C)cc1N1CCc2nc(-c3cccc4[nH]cc(C)c34)nc(N3C[C@H](C)N(CC(N)=O)C[C@H]3C)c2C1 (racemic) [Example 28-D, Racemic-2-(4-(6-(5-Isopropyl-2-methylphenyl)-2-(3-methyl-1H-indol-4-yl)-5,6,7,8-tetrahydropyrido[4,3-d]pyrimidin-4-yl)-(trans)-2,5-dimethylpiperazin-1-yl)acetamide]
30	31	CO[C@@H]1CCN(c2nc(-c3c(C)cccc3C#N)nc3c2CN(c2cc(C(C)C)ccc2C)CC3)C[C@H]1C [Example 19-AK, 2-(6-(5-isopropyl-2-methylphenyl)-4-((3R,4R)-4-methoxy-3-methylpiperidin-1-yl)-5,6,7,8-tetrahyropyrido[4,3-d]pyrimidin-2-yl)-3-methylbenzonitrile]
15	6	CO[C@@H]1CCN(c2nc(-c3c(C)ccc4[nH]nc(C)c34)nc3c2CN(c2cc(C(F)(F)F)ccc2C)CC3)CC1(C)C [Example 21-AJ, (R)-2-(3,5-dimethyl-1H-indazol-4-yl)-4-(4-methoxy-3,3-dimethylpiperidin-1-yl)-6-(2-methyl-5-(trifluoromethyl)phenyl)-5,6,7,8-tetrahydropyrido[4,3-d]pyrimidine]
670	7	Cc1ccc(C(F)(F)F)cc1N1CCc2nc(-c3cccc4[nH]cc(C)c34)nc(N3CCN(CC(N)=O)[C@H](C)C3)c2C1 [Example 24-G, (R)-2-(2-methyl-4-(2-(3-methyl-1H-indol-4-yl)-6-(2-methyl-5-(trifluoromethyl)phenyl)-5,6,7,8-tetrahydropyrido[4,3-d]pyrimidin-4-yl)piperazin-1-yl)acetamide]
224	42	Cc1cc(-c2c(C(C)C)ccc3[nH]ncc23)nc2c1CN(c1c(Cl)c(C3CC3)nn1C)CC2 [Example 46-B, 6-(4-Chloro-3-cyclopropyl-1-methyl-1H-pyrazol-5-yl)-2-(5-isopropyl-1H-indazol-4-yl)-4-methyl-5,6,7,8-tetrahydro-1,6-naphthyridine]
112	67	Cc1ccc2[nH]nc(C)c2c1-c1nc2c(c(N3CC(N(C)C)C3)n1)CN(c1c(Cl)c(C3CC3)nn1C)CC2 [Example 69-J, 1-(6-(4-chloro-3-cyclopropyl-1-methyl-1H-pyrazol-5-yl)-2-(3,5-dimethyl-1H-indazol-4-yl)-5,6,7,8-tetrahydropyrido[4,3-d]pyrimidin-4-yl)-N,N-dimethylazetidin-3-amine]
19	1	CCO[C@@H]1CCN(c2nc(-c3c(C)ccc4[nH]nc(C)c34)nc3c2CN(c2cc(C(C)C)ccc2C)CC3)[C@H](C)C1 [Example 21-AL, 2-(3,5-dimethyl-1H-indazol-4-yl)-4-((2R,4R)-4-ethoxy-2-methylpiperidin-1-yl)-6-(5-isopropyl-2-methylphenyl)-5,6,7,8-tetrahydropyrido[4,3-d]pyrimidine]
2120	14	[2H]C1([2H])c2c(C)cc(-c3c(CC)cccc3CC)nc2CCN1c1c(Cl)c(C2CC2)nn1C [Example 42-I, 6-(4-chloro-3-cyclopropyl-1-methyl-1H-pyrazol-5-yl)-2-(2,6-diethylphenyl)-4-methyl-5,6,7,8-tetrahydro(5,5-^2H2)-1,6-naphthyridine]
26	17	CO[C@H]1CCN(c2nc(-c3c(C)cccc3C)nc3c2CN(c2cc(C(F)(F)F)ccc2C)CC3)CC1(C)C [Example 19-AB, (S)-2-(2,6-dimethylphenyl)-4-(4-methoxy-3,3-dimethylpiperidin-1-yl)-6-(2-methyl-5-(trifluoromethyl)phenyl)-5,6,7,8-tetrahydropyrido[4,3-d]pyrimidine]
93	9	CO[C@@H]1CCN(c2nc(-c3c(C)cc(C)cc3C)nc3c2CN(c2cc(C(C)C)ccc2C)CC3)CC1(C)C [Example 21-AE, (R)-6-(5-isopropyl-2-methylphenyl)-2-mesityl-4-(4-methoxy-3,3-dimethylpiperidin-1-yl)-5,6,7,8-tetrahydropyrido[4,3-d]pyrimidine]
69	11	CCc1cccc(CC)c1-c1cc(C)c2c(n1)CCN(c1cc(C3CC3)ccc1C)C2 [Example 40-M, 6-(5-cyclopropyl-2-methylphenyl)-2-(2,6-diethylphenyl)-4-methyl-5,6,7,8-tetrahydro-1,6-naphthyridine]
69	16	Cc1ccc2[nH]nc(C)c2c1-c1nc2c(c(N3CC[C@@H](N(C)C)C3)n1)CN(c1c(Cl)c(C3CC3)nn1C)CC2 [Example 68-C, (R)-1-(6-(4-chloro-3-cyclopropyl-1-methyl-1H-pyrazol-5-yll)-2-(3,5-dimethyl-1H-indazol-4-yl)-5,6,7,8-tetrahydropyrido[4,3-d]pyrimidin-4-yl)-N,N-dimethylpyrrolidin-3-amine]
907	20	CC(=O)N1CCN(c2nc(-c3cccc4[nH]cc(C)c34)nc3c2CN(c2cc(C4(C)COC4)ccc2C)CC3)[C@H](C)C1 [Example 26-B, (R)-1-(3-Methyl-4-(2-(3-methyl-1H-indol-4-yl)-6-(2-methyl-5-(3-methyloxetan-3-yl)phenyl)-5,6,7,8-tetrahydropyrido[4,3-d]pyrimidin-4-yl)piperazin-1-yl)ethanone]
183	5	CC(=O)N1CCN(c2nc(-c3cccc4[nH]cc(C)c34)nc3c2CN(c2cc(C4CC4)ccc2C)CC3)[C@H](C)C1 [Example 25-C, (R)-1-(4-(6-(5-cyclopropyl-2-methylphenyl)-2-(3-methyl-1H-indol-4-yl)-5,6,7,8-tetrahydropyrido[4,3-d]pyrimidin-4-yl)-3-methylpiperazin-1-yl)ethanone]
8	2	COc1ccc(C)c(N2CCc3nc(-c4c(C)cccc4C)nc(N4CC[C@@H](OC)C[C@H]4C)c3C2)c1 [Example 21-N, 2-(2,6-dimethylphenyl)-6-(5-methoxy-2-methylphenyl)-4-((2R,4R)-4-methoxy-2-methylpiperidin-1-yl)-5,6,7,8-tetrahydropyrido[4,3-d]pyrimidine]
1500	91	Cc1c[nH]c2cccc(-c3nc4c(c(N5CCN(CC(N)=O)[C@H](C)C5)n3)CN(c3ccccc3C(F)(F)F)CC4)c12 [Example 24-D, (R)-2-(2-methyl-4-(2-(3-methyl-1H-indol-4-yl)-6-(2-(trifluoromethyl)phenyl)-5,6,7,8 tetrahydropyrido[4,3-d]pyrimidin-4-yl)piperazin-1-yl)acetamide]
181	56	CO[C@@H]1CCN(c2nc(-c3c(C)cncc3C)nc3c2CN(c2cc(C(C)C)ccc2C)CC3)CC1(C)C [Example 21-M, (R)-2-(3,5-dimethylpyridin-4-yl)-6-(5-isopropyl-2-methylphenyl)-4-(4-methoxy-3,3-dimethylpiperidin-1-yl)-5,6,7,8-tetrahydropyrido[4,3-d]pyrimidine]
